Assay results published in patent EP4741386A1 (Jiangsu Yahong Meditech Co., Ltd., priority 2023, dated 2025).

The compounds below were run against T1, Recombinant human His6-USP1/His6-UAF1 complex protein (Homo sapiens, UniProt O94782) (assay: In vitro inhibitory activity against USP1 (Ubiquitin Rhodamine 110 fluorescence detection, 384-well plate)). Conditions: Ub-Rho substrate, 1 hour pre-incubation, read after 30 minutes.
T1 construct: His6; purchased R&D E-568-050
Type: biochemical
Protocol: Test Example 1: In vitro inhibitory activity against USP1 […]
Experimental object: to screen compounds with inhibitory activity against USP1 […] by a fluorescence detection method, using a 384-well plate.
Experimental materials: Recombinant human His6-USP1/His6-UAF1 complex protein (R&D, Cat. No.: E-568-050), Ubiquitin Rhodamine 110 protein (Ub-Rho) (R&D, Cat. No.: U-555-050), 384-well plate (Perkin Elmer, Cat. No.: 6007279); all compounds were dissolved in 100% DMSO to obtain 50 mM stock solutions.
• 1) Preparation of 1 × assay buffer: 1 × assay buffer (modified Tris buffer) was prepared; • 2) Dilution of compounds: the compounds were transferred to an assay plate via Echo.

T1 sequence (O94782 whole entry): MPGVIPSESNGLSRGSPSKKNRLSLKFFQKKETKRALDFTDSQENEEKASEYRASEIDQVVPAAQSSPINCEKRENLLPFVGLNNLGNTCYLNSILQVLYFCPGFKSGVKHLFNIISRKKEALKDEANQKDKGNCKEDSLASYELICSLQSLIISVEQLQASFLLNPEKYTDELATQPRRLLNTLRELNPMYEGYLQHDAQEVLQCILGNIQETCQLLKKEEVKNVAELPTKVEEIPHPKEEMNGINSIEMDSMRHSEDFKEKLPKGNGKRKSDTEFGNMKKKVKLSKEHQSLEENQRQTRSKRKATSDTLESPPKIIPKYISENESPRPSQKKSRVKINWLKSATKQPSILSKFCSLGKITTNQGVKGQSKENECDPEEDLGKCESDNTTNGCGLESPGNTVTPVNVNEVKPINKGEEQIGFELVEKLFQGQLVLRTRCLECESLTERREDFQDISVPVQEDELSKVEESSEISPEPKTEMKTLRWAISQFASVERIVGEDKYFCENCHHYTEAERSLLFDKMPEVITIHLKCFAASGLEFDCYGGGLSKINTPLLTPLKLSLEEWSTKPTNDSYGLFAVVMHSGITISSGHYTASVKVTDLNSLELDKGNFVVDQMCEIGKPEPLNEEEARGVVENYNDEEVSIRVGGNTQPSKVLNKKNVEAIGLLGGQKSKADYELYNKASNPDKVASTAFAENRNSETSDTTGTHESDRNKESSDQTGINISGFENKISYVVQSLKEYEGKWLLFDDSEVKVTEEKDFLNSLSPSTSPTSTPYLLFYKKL
T1 sequence (Q8TAF3 whole entry partner): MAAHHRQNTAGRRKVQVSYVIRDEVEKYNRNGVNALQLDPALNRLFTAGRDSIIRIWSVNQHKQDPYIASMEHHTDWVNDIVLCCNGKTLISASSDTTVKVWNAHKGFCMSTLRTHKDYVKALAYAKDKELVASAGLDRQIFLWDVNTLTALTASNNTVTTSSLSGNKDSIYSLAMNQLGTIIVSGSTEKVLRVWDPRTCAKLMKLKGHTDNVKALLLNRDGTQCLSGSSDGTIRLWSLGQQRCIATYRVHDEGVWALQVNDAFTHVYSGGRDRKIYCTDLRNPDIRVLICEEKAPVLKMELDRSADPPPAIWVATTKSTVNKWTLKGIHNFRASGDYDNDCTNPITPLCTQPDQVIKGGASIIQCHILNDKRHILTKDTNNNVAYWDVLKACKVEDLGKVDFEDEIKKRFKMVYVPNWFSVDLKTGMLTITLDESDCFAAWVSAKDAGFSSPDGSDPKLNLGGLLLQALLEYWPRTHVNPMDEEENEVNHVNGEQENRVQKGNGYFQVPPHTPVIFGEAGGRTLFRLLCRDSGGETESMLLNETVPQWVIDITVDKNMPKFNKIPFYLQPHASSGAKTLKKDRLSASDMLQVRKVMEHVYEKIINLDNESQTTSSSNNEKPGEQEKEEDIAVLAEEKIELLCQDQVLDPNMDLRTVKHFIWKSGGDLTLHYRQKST

Row | SMILES | IC50
1 | Cn1cc(C(F)F)nc1-c1ccc(CNc2nc(-c3cncnc3C3CC3)nc3ccoc23)cc1 [Example 197, 2-(4-Cyclopropylpyrimidin-5-yl)-N-(4-(4-(difluoromethyl)-1-methyl-1H-imidazol-2-yl)benzyl)furo[3,2-d]pyrimidin-4-amine] | 133 nM
2 | COc1ncnc(C2CC2)c1-c1ncc2c(n1)N(CC1CCN(c3ccccn3)CC1)CCO2 [Example 10, 2-(4-Cyclopropyl-6-methoxypyrimidin-5-yl)-8-((1-(pyridin-2-yl)piperidin-4-yl)methyl)-7,8-dihydro-6H-pyrimido[5,4-b][1,4]oxazine] | 564 nM
3 | Cc1cc(C(F)(F)F)nn1-c1ccc(CNc2nc(-c3ccccc3C(C)C)ncc2O)cc1 [Example 90, 2-(2-Isopropylphenyl)-4-((4-(5-methyl-3-(trifluoromethyl)-1H-pyrazol-1-vl)benzyl)amino)pyrimidin-5-ol] | 102 nM
4 | COc1cnc(-c2c(C)cnn2C2CC2)nc1N(O)Cc1ccc(-c2nc(C(F)(F)F)cn2C)cc1 [Example 205, N-(2-(1-cyclopropyl-4-methyl-1H-pyrazol-5-yl)-5-methoxypyrimidin-4-yl)-N-(4-(1-methyl-4-(trifluoromethyl)-1H-imidazol-2-yl)benzyl)hydroxylamine] | 43 nM
5 | COc1cnc(-c2c(OC)cnn2C2CC2)nc1NCc1ccc(-c2ccccn2)cc1 [Example 183, 2-(1-Cyclopropyl-4-methoxy-1H-pyrazol-5-yl)-5-methoxy-N-(4-(pyridin-2-yl)benzyl)pyrimidin-4-amine] | 164 nM
6 | COc1ncnc(C2CC2)c1-c1ncc2c(n1)N(Cc1ccc(-c3ccccn3)cc1)CCO2 [Example 9, 2-(4-Cyclopropyl-6-methoxypyrimidin-5-yl)-8-(4-(pyridin-2-yl)benzyl)-7,8-dihydro-6H-pyrimido[5,4-b][1,4]oxazine] | 35 nM
7 | CC(C)c1ccccc1-c1ncc(C(F)(F)F)c(NCC2CCN(c3ccccn3)CC2)n1 [Example 76, 2-(2-Isopropylphenyl)-N-((1-(pyridin-2-yl)piperidin-4-yl)methyl)-5-(trifluoromethyl)pyrimidin-4-amine] | 30.1 nM
8 | CC(C)c1ccccc1-c1ncc(C(F)(F)F)c(NCc2ccc(-c3ccccn3)cc2)n1 [Example 16, 2-(2-Isopropylphenyl)-N-(4-(pyridin-2-yl)benzyl)-5-(trifluoromethyl)pyrimidin-4-amine] | 30.6 nM
9 | COc1cnc(-c2cncnc2C2CC2)nc1NCc1ccc(-c2nc(C(F)F)cn2C)cc1 [Example 195, 4'-Cyclopropyl-N-(4-(4-(difluoromethyl)-1-methyl-1H-imidazol-2-yl)benzyl)-5-methoxy-[2,5'-bipyrimidin]-4-amine] | 243 nM
10 | COC1CC(Oc2ccc(CNc3nc(-c4ccccc4C(C)C)nc4ccoc34)cc2)C1 (stereo not shown) [Example 80, 2-(2-Isopropylphenyl)-N-(4-(3-methoxycyclobutoxy)benzyl)furo[3,2-d]pyrimidin-4-amine] | 26 nM
11 | COc1ncnc(C2CC2)c1-c1nc(NCc2ccc(OC3CC(OC)C3)cc2)c2occc2n1 (stereo not shown) [Example 118, 2-(4-Cyclopropyl-6-methoxypyrimidin-5-yl)-N-(4-(3-methoxycyclobutoxy)benzyl)furo[3,2-d]pyrimidin-4-amine] | 58 nM
12 | COc1cnc(-c2ccccc2C(C)C)nc1NCc1ccc2c(c1)CN(C1CCC(=O)NC1=O)C2=O (stereo not shown) [Example 41, 3-(5-(((2-(2-Isopropylphenyl)-5-methoxypyrimidin-4-yl)amino)methyl)-1-oxoisoindolin-2-yl)piperidine-2,6-dione] | 1260 nM
13 | COc1cnc(-c2cncnc2C2CC2)nc1N(C)Cc1ccc(-c2nc(C(F)(F)F)cn2C)cc1 [Example 193, 4'-Cyclopropyl-5-methoxy-N-methyl-N-(4-(1-methyl-4-(trifluoromethyl)-1H-imidazol-2-yl)benzyl)-[2,5'-bipyrimidin]-4-amine] | 87 nM
14 | COc1ncnc(C2CC2)c1-c1nc(NCc2ccc3c(c2)CCN(C(C)C)C3=O)c2occc2n1 [Example 115, 6-(((2-(4-Cyclopropyl-6-methoxypyrimidin-5-yl)furo[3,2-d]pyrimidin-4-yl)amino)methyl)-2-isopropyl-3,4-dihydroisoquinolin-1(2H)-one] | 77 nM
15 | COc1cnc(-c2c(OC)ncnc2C2CC2)nc1N(Cc1ccc(-c2nc(C(F)(F)F)cn2C)cc1)C1CCOC1 (stereo not shown) [Example 140, 4'-Cyclopropyl-5,6'-dimethoxy-N-(4-(1-methyl-4-(trifluoromethyl)-1H-imidazol-2-yl)benzyl)-N-(tetrahydrofuran-3-yl)-[2,5'-bipyrimidin]-4-amine] | 73 nM
16 | COc1cnc(-c2c(OC)cnn2C2CC2)nc1NCC1CCN(c2nc(C(F)(F)F)cn2C)CC1 [Example 184, 2-(1-Cyclopropyl-4-methoxy-1H-pyrazol-5-yl)-5-methoxy-N-((1-(1-methyl-4-(trifluoromethyl)-1H-imidazol-2-yl)piperidin-4-yl)methyl)pyrimidin-4-amine] | 94 nM
17 | COc1cnc(-c2c(C)ncnc2OC2CC2)nc1NCC12CCC(c3nc(C(F)(F)F)cn3C)(CC1)CC2 [Example S19] | 300 nM
18 | CC(C)Oc1cnc(-c2ccccc2C(C)C)nc1NCC12CCC(c3ccc(C(F)(F)F)cn3)(CC1)CC2 [Example 74, 5-Isopropoxy-2-(2-isopropylphenyl)-N-((4-(5-(trifluoromethyl)pyridin-2-yl)bicyclo[2.2.2]octan-1-yl)methyl)pyrimidin-4-amine] | 873 nM
19 | Cc1ncn(C(C)C)c1-c1nc(NCc2ccc(-c3nc(C(F)(F)F)cn3C)cc2)c2occc2n1 [Example 149, 2-(1-Isopropyl-4-methyl-1H-imidazol-5-yl)-N-(4-(1-methyl-4-(trifluoromethyl)-1H-imidazol-2-yl)benzyl)furo[3,2-d]pyrimidin-4-amine] | 69.2 nM

Other lines, results leading:

Row | IC50 | SMILES
20 | 26 nM | COc1cnc(-c2ccccc2C(C)C)nc1N(C)Cc1ccc(-c2ccccn2)cc1 [Example 1, 2-(2-isopropylphenyl)-5-methoxy-N-methyl-N-(4-(pyridin-2-yl)benzyl)pyrimidin-4-amine]
21 | 6.1 nM | COc1cnc(-c2c(Cl)cnn2C(C)C)nc1NCC12CCC(c3nc(C(F)(F)F)cn3C3CCC3)(CC1)OC2 [Example S11, 2-(4-Chloro-1-isopropyl-1H-pyrazol-5-yl)-N-((1-(1-cyclobutyl-4-(trifluoromethyl)-1H-imidazol-2-yl)-2-oxabicyclo[2.2.2]oct-4-yl)methyl)-5-methoxypyrimidin-4-amine]
22 | 4.8 nM | COc1cnc(-c2c(OC)ncnc2C2CC2)nc1NCc1ccc(-c2nc(C(F)(F)F)cn2C)cc1 [Example 29, 4'-Cyclopropyl-5,6'-dimethoxy-N-(4-(1-methyl-4-(trifluoromethyl)-1H-imidazol-2-yl)benzyl)-[2,5'-bipyrimidin]-4-amine]
23 | 4.5 nM | CCOCCOc1ccc(CNc2nc(-c3ccccc3C(C)C)nc3ccoc23)cc1 [Example 79, N-(4-(2-Ethoxyethoxy)benzyl)-2-(2-isopropylphenyl)furo[3,2-d]pyrimidin-4-amine]
24 | 19 nM | COc1cnc(-c2c(OC)ncnc2C2CC2)nc1N(C)CC12CCC(c3nc(C(F)(F)F)cn3C)(CC1)OC2 [Example S10, 4'-Cyclopropyl-5,6'-dimethoxy-N-methyl-N-((1-(1-methyl-4-(trifluoromethyl)-1H-imidazol-2-yl)-2-oxabicyclo[2.2.2]oct-4-yl)methyl)-[2,5'-bipyrimidin]-4-amine]
25 | 19 nM | COc1cnc(-c2c(OC)ncnc2C2CC2)nc1N(C)CC12CCC(c3nc(C(F)(F)F)cn3C)(CC1)OC2 [Example 212, 4'-cyclopropyl-5,6'-dimethoxy-N-methyl-N-((1-(1-methyl-4-(trifluoromethyl)-1H-imidazol-2-yl)-2-oxabicyclo[2.2.2]octan-4-yl)methyl)-[2,5'-bipyrimidin]-4-amine]
26 | 5.3 nM | COc1cnc(-c2ccccc2C(C)C)nc1NCc1ccc(OCc2ccccn2)cc1 [Example 67, 2-(2-Isopropylphenyl)-5-methoxy-N-(4-(pyridin-2-ylmethoxy)benzyl)pyrimidin-4-amine]
27 | 6.4 nM | CC(C)c1ccccc1-c1nc(NCc2ccc3c(c2)CCN(C(C)C)C3=O)c2occc2n1 [Example 78, 2-Isopropyl-6-(((2-(2-isopropylphenyl)furo[3,2-d]pyrimidin-4-yl)amino)methyl)-3,4-dihydroisoquinolin-1(2H)-one]
28 | 8.8 nM | CC(C)c1ccccc1-c1ncc2c(n1)N(CC1CCN(c3nc(C(F)(F)F)cn3C)CC1)C(=O)CO2 [Example 24, 2-(2-Isopropylphenyl)-8-((1-(1-methyl-4-(trifluoromethyl)-1H-imidazol-2-yl)piperidin-4-yl)methyl)-6H-pyrimido[5,4-b][1,4]oxazin-7(8H)-one]
29 | 3.5 nM | COc1cnc(-c2c(OC)ncnc2C2CC2)nc1N(C#N)Cc1ccc(-c2nc(C(F)(F)F)cn2C)cc1 [Example 206, N-(4'-cyclopropyl-5,6'-dimethoxy-[2,5'-bipyrimidin]-4-yl)-N-(4-(1-methyl-4-(trifluoromethyl)-1H-imidazol-2-yl)benzyl)cyanamide]
30 | 3.7 nM | CC(C)c1ccccc1-c1ncc(C(F)(F)F)c(NCC2CCN(c3nc(C(F)(F)F)cn3C)CC2)n1 [Example 25, 2-(2-Isopropylphenyl)-N-((1-(1-methyl-4-(trifluoromethyl)-1H-imidazol-2-yl)piperidin-4-yl)methyl)-5-(trifluoromethyl)pyrimidin-4-amine]
31 | 27 nM | COc1cnn(C(C)C)c1-c1nc(NCc2ccc(-c3ccccn3)cc2)c2occc2n1 [Example 181, 2-(1-Isopropyl-4-methoxy-1H-pyrazol-5-yl)-N-(4-(pyridin-2-yl)benzyl)furo[3,2-d]pyrimidin-4-amine]
